US6335339B1, “Triazine antiviral compounds” (Scriptgen Pharmaceuticals, Inc., priority 1998, dated 2002)

System: HBV εRNA
Experiment: εRNA/oligonucleotide hybridization inhibition assay with rRNA competitor
Assay type: binding, Hepatitis B virus
Conditions: for IC50: radiolabeled εRNA, 60-fold excess rRNA competitor; for Specificity: ratio RRE+rRNA IC50/εRNA+rRNA IC50, max = inactive in RRE assay
From the text: One assay used in determining the activity of the compounds of the present invention is disclosed in copending U.S. patent application Ser. No. 08/709,342, filed Sep. 6, 1996, the disclosure of which is hereby incorporated herein by reference in its entirety. The assay detects the interaction between target RNA molecule and a test ligand by measuring the ligand's ability to inhibit hybridization between the RNA and a specific complementary oligonucleotide. In one embodiment, the target RNA is radiolabelled and the oligonucleotide is labeled with biotin; in this case, the extent of hybridization is determined by measuring the amount of radiolabeled RNA detected with a streptavidin/biotin-based capture system.
Concentrations of test compounds of between about 0.1 μM and about 200 μM are assayed for inhibition using radiolabeled εRNA in the absence or presence of a large excess of an unlabeled non-specific RNA competitor (such as, e.g., ribosomal RNA, rRNA). Compounds that bind εRNA non-specifically are competitively displaced by the rRNA, resulting in reduced or no inhibition of hybridization between the radiolabeled εRNA and the biotinylated oligonucleotide. Conversely, the inhibitory activity of compounds that specifically bind εRNA is not affected by the presence of the competitor rRNA.
The high throughput assays were performed in 96-well plates containing eighty drugs (5 μl, 60 μg/ml in DMSO) distributed one per well in columns 2-6 and 8-12 of the 8×12 96-well array. The remaining 16 wells in columns 1 and 7 were filled with 5 μl DMSO to serve as the control reactions. 45 μl of reaction mixture containing buffer, salts and radiolabeled target RNA were delivered on each well of the compound-containing plates to yield a 50 μl mixture containing 50 mM Tris-HCl, pH 7.5, 200 mM KCl, 5 mM MgCl2, 5 mM DTT, 6 μg/ml test compound, and 25 nM [^32 P]-labeled εRNA. The reaction was started by addition of the biotinylated oligonucleotide, 262.104 A (5 μl) to a final concentration of 100 nM. The reaction was incubated at 25° C. for 60 minutes, and then 5 μl of 0.3 mg/ml SAAP (streptavidin alkaline phosphatase conjugate, Pierce, Rockford, Ill.) was added. The reaction was incubated for an additional 30 minutes at 25° C. and filtered through 96-well format HATF nitrocellulose filters (Millipore, Bedford, Mass.) using a multiscreen vacuum manifold (Millipore, Bedford, Mass.). Subsequently, 300 μl of wash buffer (50 mM Tris-HCl, pH 7.5, 200 mM KCl) was filtered through to wash the filters. The filters were dried and supplemented with 20 μl scintillation fluid (Super Mix, Wallac Oy, Turku, Finland). The amount of hybrids formed was determined by scintillation counting of the radiolabeled εRNA retained on the filters.
The inhibitory effect of a test compound (expressed as percentage of inhibition, % Inh.) was calculated using the following formula: […]
where Ro is the average retention of hybrids in the 16 identical control reactions in columns 1 and 7 and Rx is the hybrids retained in the presence of a test drug, x.
Biotinylated oligonucleotides 262.104 A (5′-biotin-TTAGGCACAGCTTGGAGGCTTGAACAGTG-3′) and 208.92 A (5′-biotin-CGTCATTGACGCTGCGCCCA-3′) were synthetically prepared (Oligos Etc., Willsonville, Oreg.). These oligonucleotides are complementary to regions of the εRNA and RRE RNA targets, respectively.
A plasmid containing the target sequence following the bacteriophage SP6 promoter was used as a template for the synthesis of radiolabeled εRNA using [α^32 P]-UTP and SP6 RNA polymerase as described by the suppliers, e.g., Ambion, Austin, Tex., and by methods well known to those of ordinary skill in the art.
Compounds that inhibited the primary screening assay described above were individually titrated in the same assay at concentrations between 0.1 μM and 200 μM in the absence and presence of 60-fold excess rRNA as a non-specific competitor. […]

## CCCCN(CCCC)c1nc(NN=Cc2ccc([N+](=O)[O-])cc2)nc(Nc2ccc([N+](=O)[O-])cc2)n1 [Compound 5]
  IC50: 49.3 µM
  Specificity: max.

## Cc1[nH]c2ccccc2c1C=NNc1nc(Nc2ccccc2)nc(Nc2ccc([N+](=O)[O-])cc2)n1 [Compound 6]
  IC50: 10.4 µM
  Specificity: max.

## Cc1ccc(Nc2nc(NN=Cc3ccccc3)nc(Nc3ccccc3)n2)c(C)c1 [Compound 7]
  IC50: 2.4 µM
  Specificity: max.

## CCCCN(CCCC)c1nc(N/N=C/c2cc(I)cc(I)c2O)nc(Nc2ccc([N+](=O)[O-])cc2)n1 [Compound 8]
  IC50: 4 µM
  Specificity: max.

## Cc1ccc(Nc2nc(NN=Cc3ccc(O)cc3O)nc(Nc3ccc([N+](=O)[O-])cc3)n2)cc1C [Compound 9]
  IC50: 6.2 µM
  Specificity: 132.6

## Cc1ccccc1Nc1nc(NN=Cc2ccc(I)cc2)nc(Nc2ccc([N+](=O)[O-])cc2)n1 [Compound 10]
  IC50: 12 µM
  Specificity: max.

## CCCCN(CCCC)c1nc(NN=Cc2ccc3c(c2)OCO3)nc(Nc2ccc([N+](=O)[O-])cc2)n1 [Compound 11]
  IC50: 15 µM
  Specificity: max.

## Cc1ccc(Nc2nc(NN=Cc3ccccc3O)nc(Nc3ccc([N+](=O)[O-])cc3)n2)cc1C [Compound 12]
  IC50: 2.6 µM
  Specificity: max.

## CCN(CC)c1nc(NN=Cc2ccc([N+](=O)[O-])cc2)nc(Nc2ccccc2)n1 [Compound 13]
  IC50: 4.9 µM
  Specificity: max.

## COc1c(Br)cc(Br)cc1C=NNc1nc(Nc2ccccc2)nc(N2CCCCC2)n1 [Compound 14]
  IC50: 7.1 µM
  Specificity: max.

## Cc1ccc(C=NNc2nc(Nc3ccc([N+](=O)[O-])cc3)nc(Nc3ccccc3C)n2)cc1 [Compound 15]
  IC50: 11 µM
  Specificity: max.

## CCCCN(CCCC)c1nc(NN=Cc2ccc(Cl)cc2)nc(Nc2ccc([N+](=O)[O-])cc2)n1 [Compound 16]
  IC50: 12.1 µM
  Specificity: max.

## CC(C=NNc1nc(Nc2ccc([N+](=O)[O-])cc2)nc(Nc2ccc(C)c(C)c2)n1)=Cc1ccccc1 [Compound 19]
  IC50: 9.9 µM
  Specificity: max.

## COc1ccc(Nc2nc(NN=Cc3ccc(OC)cc3OC)nc(Nc3ccccc3)n2)cc1 [Compound 20]
  IC50: 11.7 µM
  Specificity: max.

## FC(F)(F)c1cccc(Nc2nc(Nc3ccccc3)nc(N3CCOCC3)n2)c1 [Compound 21]
  IC50: 14.4 µM
  Specificity: max.

## COc1ccc(Nc2nc(NN=Cc3ccc(Cl)cc3)nc(Nc3ccccc3)n2)cc1 [Compound 22]
  IC50: 3.6 µM
  Specificity: max.

## CCCCN(CCCC)c1nc(NN=Cc2ccc(OCC)c(O)c2)nc(Nc2ccc([N+](=O)[O-])cc2)n1 [Compound 23]
  IC50: 5.7 µM
  Specificity: max.

## O=[N+]([O-])c1ccc(Nc2nc(NCc3ccccc3)nc(NN=Cc3ccccc3)n2)cc1 [Compound 24]
  IC50: 10 µM
  Specificity: max.

## Cc1ccc(Nc2nc(NN=Cc3ccccc3)nc(Nc3ccccc3)n2)cc1 [Compound 25]
  IC50: 11.9 µM
  Specificity: max.

## CCN(CC)CCNc1ccc2c3c(cccc13)C(=O)N(Nc1nc(NCc3ccccc3)nc(N(CC)CC)n1)C2=O [Compound 27]
  IC50: 15.5 µM
  Specificity: max.

## COc1ccc(Br)cc1/C=N/Nc1nc(Nc2cccc([N+](=O)[O-])c2)nc(N2CCOCC2)n1 [Compound 28]
  IC50: 18.9 µM
  Specificity: max.

## Cc1ccccc1Nc1nc(NN=Cc2ccc3c(c2)OCO3)nc(Nc2ccc([N+](=O)[O-])cc2)n1 [Compound 29]
  IC50: 24.8 µM
  Specificity: max.

## Cc1ccc(Nc2nc(NN=Cc3cccc(I)c3)nc(Nc3ccccc3)n2)cc1 [Compound 30]
  IC50: 25 µM
  Specificity: max.

## Oc1ccc(I)cc1C=NNc1nc(NCc2ccccc2)nc(Nc2ccccc2)n1 [Compound 33]
  IC50: 37.2 µM
  Specificity: max.

## Oc1c(Br)cc(Cl)cc1/C=N/Nc1nc(Nc2cccc(C(F)(F)F)c2)nc(N2CCOCC2)n1 [Compound 34]
  IC50: 21 µM
  Specificity: max.

## CCCCN(CCCC)c1nc(NN=Cc2cccc(Cl)c2)nc(Nc2ccc([N+](=O)[O-])cc2)n1 [Compound 35]
  IC50: 24.9 µM
  Specificity: max.

## Cc1ccc(Nc2nc(NN=Cc3ccc(I)cc3)nc(Nc3ccccc3)n2)c(C)c1 [Compound 113]
  IC50: 33.1 µM
  Specificity: 9.1

## O=[N+]([O-])c1ccc(Nc2nc(NN=Cc3ccc(Br)cc3)nc(N3CCCCCC3)n2)cc1 [Compound 117]
  IC50: 15.6 µM
  Specificity: max.

## FC(F)(F)c1cccc(Nc2nc(NN=Cc3ccc(Cl)cc3)nc(N3CCOCC3)n2)c1 [Compound 120]
  IC50: 46 µM
  Specificity: 24.1

## C(=Cc1ccccc1)C=NNc1nc(Nc2ccccc2)nc(Nc2ccccc2)n1 [Compound 125]
  IC50: 35.1 µM
  Specificity: 28.5

## CCN(CC)c1nc(NCc2ccccc2)nc(N/N=C/c2ccccc2O)n1 [Compound 155, 2-hydroxybenzaldehyde N-[4-(benzylamino)-6-(diethylamino)-1,3,5-triazin-2-yl]hydrazone]
  IC50: 25.5 µM
  Specificity: max.

## COc1ccc(Nc2nc(NN=Cc3ccc(O)cc3O)nc(Nc3ccccc3)n2)cc1 [Compound 158]
  IC50: 7.4 µM
  Specificity: max.

## Cc1ccc(Nc2nc(NN=Cc3cc(I)ccc3O)nc(Nc3ccccc3)n2)c(C)c1 [Compound 159]
  IC50: 2.7 µM
  Specificity: max.

## Oc1ccc(Cl)cc1C=NNc1nc(Nc2ccc3ccccc3c2)nc(N2CCOCC2)n1 [Compound 160]
  IC50: 9.5 µM
  Specificity: 44.2

## COc1c(C=NNc2nc(NCc3ccccc3)nc(Nc3ccccc3)n2)cccc1[N+](=O)[O-] [Compound 162]
  IC50: 11.7 µM
  Specificity: max.

## Brc1cccc(C=NNc2nc(Nc3ccccc3)nc(N3CCOCC3)n2)c1 [Compound 163]
  IC50: 99 µM
  Specificity: max.

## COc1ccc(Nc2nc(NN=Cc3ccc(O)cc3O)nc(N3CCOCC3)n2)cc1 [Compound 164]
  IC50: 48 µM
  Specificity: max.

## COc1ccc(C=NNc2nc(NCc3ccccc3)nc(Nc3ccccc3)n2)cc1 [Compound 165]
  IC50: 18.8 µM
  Specificity: max.

## Ic1cccc(C=NNc2nc(Nc3ccc4ccccc4c3)nc(N3CCOCC3)n2)c1 [Compound 166]
  IC50: 36.3 µM
  Specificity: max.

## Oc1ccc2ccccc2c1C=NNc1nc(Nc2cccc3ccccc23)nc(N2CCOCC2)n1 [Compound 167]
  IC50: 50.9 µM
  Specificity: max.

## COc1c(C=NNc2nc(Nc3ccccc3)nc(Nc3ccccc3)n2)ccc(Br)c1O [Compound 168]
  IC50: 19.7 µM
  Specificity: max.

## Oc1ccccc1C=NNc1nc(Nc2ccccc2)nc(N2CCCCC2)n1 [Compound 169]
  IC50: 15.4 µM
  Specificity: max.

## COc1cccc(C=NNc2nc(Nc3ccccc3)nc(N3CCCC3)n2)c1O [Compound 170]
  IC50: 6.2 µM
  Specificity: 119.3

## CCN(CC)c1nc(NN=Cc2c(O)ccc3ccccc23)nc(Nc2ccccc2)n1 [Compound 171]
  IC50: 9.4 µM
  Specificity: max.

## Cc1cccc(C(=O)Oc2ccc(C=NNc3nc(N4CCCCC4)nc(N4CCCCC4)n3)cc2)c1 [Compound 181]
  IC50: 60 µM
  Specificity: max.

## CC(=NNc1nc(NCc2ccccc2)nc(Nc2ccccc2)n1)c1ccc([N+](=O)[O-])cc1 [Compound 182]
  IC50: 70.4 µM
  Specificity: max.
